Assay results published in patent US20100075957A1, “AMINODIHYDROTHIAZINE DERIVATIVES SUBSTITUTED WITH A CYCLIC GROUP” (SHIONOGI & CO., LTD., priority 2007, published 2010).

biological target: T1, Recombinant human BACE-1 (Homo sapiens, UniProt P56817); test: Assay of β-secretase-inhibiting activity; format: biochemical; conditions: Recombinant human BACE-1 7.4 nM, substrate peptide 18 nM, pH 5.0, 30° C., 3 hours; Table 139; read-out: IC50;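 also: substrate is a peptide carrying biotin and europium cryptate, after the enzyme reaction, Streptavidin-XL665 is added and incubated 1 h at 30 °C before fluorescence reading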
T1 construct: purchased R&D Systems
T1 sequence (P56817 46-501): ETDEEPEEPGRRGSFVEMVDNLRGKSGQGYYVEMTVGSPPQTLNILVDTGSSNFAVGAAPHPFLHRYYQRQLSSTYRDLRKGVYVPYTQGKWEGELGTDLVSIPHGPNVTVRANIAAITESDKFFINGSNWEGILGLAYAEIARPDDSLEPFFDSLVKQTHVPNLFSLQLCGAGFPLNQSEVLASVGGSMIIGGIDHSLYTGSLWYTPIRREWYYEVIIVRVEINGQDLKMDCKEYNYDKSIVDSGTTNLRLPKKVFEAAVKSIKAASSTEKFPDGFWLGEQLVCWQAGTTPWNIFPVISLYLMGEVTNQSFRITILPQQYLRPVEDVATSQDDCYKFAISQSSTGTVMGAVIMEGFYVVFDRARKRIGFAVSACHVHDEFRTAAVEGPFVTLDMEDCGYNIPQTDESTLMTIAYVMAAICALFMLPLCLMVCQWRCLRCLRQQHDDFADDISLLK

IC50 | SMILES
0.08 µM | Cc1cc(C(=O)Nc2cccc([C@]3(C)CCSC(N)=N3)c2)c(C)o1 [Compound 3]
0.17 µM | Cc1cc(C(=O)Nc2cccc([C@]3(C)CCSC(N)=N3)c2)c(C)s1 [Compound 11]
0.16 µM | Cc1nc(C)c(C(=O)Nc2ccc(F)c([C@]3(C)CCSC(N)=N3)c2)s1 [Compound 12]
0.1 µM | C/C=C/COc1ccc(C(=O)Nc2cccc([C@]3(C)CCSC(N)=N3)c2)nc1 [Compound 34]
0.14 µM | CSc1ccc(C(=O)Nc2ccc(F)c([C@]3(C)CCSC(N)=N3)c2)s1 [Compound 38]
0.15 µM | C[C@@]1(c2cc(NC(=O)c3ccc(Br)s3)ccc2F)CCSC(N)=N1 [Compound 41]
0.17 µM | COCCOc1cnc(C(=O)Nc2cccc(C3(C)CCSC(N)=N3)c2)cn1 (stereo not shown) [Compound 62]
0.72 µM | CC#CC(=O)Nc1cccc([C@]2(C)CCSC(N)=N2)c1 [Compound 65]
0.15 µM | C=Cc1cnc(C(=O)Nc2cccc([C@]3(C)CCSC(N)=N3)c2)cn1 [Compound 66]
0.09 µM | COCCOc1cnc(C(=O)Nc2cccc([C@]3(C)CCSC(N)=N3)c2)cn1 [Compound 70]
0.16 µM | CCCCOc1cnc(C(=O)Nc2cccc(C3(C)CCSC(N)=N3)c2)cn1 (stereo not shown) [Compound 71]
0.11 µM | CCCOc1cnc(C(=O)Nc2cccc([C@]3(C)CCSC(N)=N3)c2)cn1 [Compound 72]
0.18 µM | CSCCOc1cnc(C(=O)Nc2cccc([C@]3(C)CCSC(N)=N3)c2)cn1 [Compound 76]
0.07 µM | CCSc1cnc(C(=O)Nc2cccc([C@]3(C)CCSC(N)=N3)c2)cn1 [Compound 80]
0.19 µM | C=CCCOc1cnc(C(=O)Nc2cccc([C@]3(C)CCSC(N)=N3)c2)cn1 [Compound 86]
0.09 µM | CC(C)COc1cnc(C(=O)Nc2cccc([C@]3(C)CCSC(N)=N3)c2)cn1 [Compound 87]
0.08 µM | C[C@@]1(c2cccc(NC(=O)c3cnc(OCC(F)F)cn3)c2)CCSC(N)=N1 [Compound 92]
0.08 µM | COCCOc1ccc(C(=O)Nc2ccc(F)c([C@]3(C)CCSC(N)=N3)c2)nc1 [Compound 93]
0.17 µM | C[C@@]1(c2cccc(NC(=O)c3cnc(OCC4CCO4)cn3)c2)CCSC(N)=N1 (stereo partly shown) [Compound 94]
0.08 µM | C[C@@]1(c2cccc(NC(=O)c3cnc(OCc4ccccc4)cn3)c2)CCSC(N)=N1 [Compound 101]
0.13 µM | C#CCCOc1cnc(C(=O)Nc2cccc([C@]3(C)CCSC(N)=N3)c2)cn1 [Compound 105]
0.12 µM | CC#CCCOc1cnc(C(=O)Nc2cccc([C@]3(C)CCSC(N)=N3)c2)cn1 [Compound 106]
0.1 µM | C=C(C)COc1cnc(C(=O)Nc2cccc([C@]3(C)CCSC(N)=N3)c2)cn1 [Compound 109]
0.18 µM | C[C@@]1(c2cccc(NC(=O)c3ccc(OCc4ccc(F)cc4)cn3)c2)CCSC(N)=N1 [Compound 111]
0.16 µM | C[C@@]1(c2cc(NC(=O)c3ccc(OCCO)cn3)ccc2F)CCSC(N)=N1 [Compound 114]
2.14 µM | COc1nc(Nc2ccc(F)c([C@]3(C)CCSC(N)=N3)c2)nc(OC)n1 [Compound 126]

same assay, conditions: Recombinant human BACE-1 7.4 nM, substrate peptide 18 nM, pH 5.0, 30° C., 3 hours; time-resolved fluorescence ratio 665/620; read-out: IC50 values (50% inhibitory concentration against the enzymatic activity)

IC50 | SMILES
≤ 1 µM | Cn1nc(C(F)(F)F)cc1C(=O)Nc1cccc([C@]2(C)CCSC(N)=N2)c1 [Compound 4]
≤ 1 µM | Cc1cc(C(=O)Nc2cccc([C@]3(C)CCSC(N)=N3)c2)[nH]n1 [Compound 5]
≤ 1 µM | COc1cc(C(=O)Nc2cccc([C@]3(C)CCSC(N)=N3)c2)n(C)n1 [Compound 18]
≤ 1 µM | Cc1cc(C(=O)Nc2ccc(F)c([C@]3(C)CCSC(N)=N3)c2)on1 [Compound 19]
≤ 1 µM | Cc1cc(C(=O)Nc2ccc(F)c([C@]3(C)CCSC(N)=N3)c2)no1 [Compound 20]
≤ 1 µM | CSc1ccc(NC(=O)c2cnc(C)cn2)cc1[C@]1(C)CCSC(N)=N1 [Compound 21]
≤ 1 µM | COc1cc(C(=O)Nc2ccc(F)c([C@]3(C)CCSC(N)=N3)c2)on1 [Compound 22]
≤ 1 µM | COc1cnc(C(=O)Nc2cccc([C@]3(C)CCSC(N)=N3)c2)cn1 [Compound 29]
≤ 1 µM | CC#CCOc1ccc(C(=O)Nc2cccc([C@]3(C)CCSC(N)=N3)c2)nc1 [Compound 35]
≤ 1 µM | CCOc1nccnc1C(=O)Nc1ccc(F)c([C@]2(C)CCSC(N)=N2)c1 [Compound 43]
≤ 1 µM | COCCOc1nccnc1C(=O)Nc1ccc(F)c([C@]2(C)CCSC(N)=N2)c1 [Compound 45]
≤ 1 µM | COCCOc1cnc(C(=O)Nc2ccc(F)c([C@]3(C)CCSC(N)=N3)c2)c(N)n1 [Compound 46]
≤ 1 µM | C[C@@]1(c2cccc(NC(=O)c3cnc(Cl)cn3)c2)CCSC(N)=N1 [Compound 58]
≤ 1 µM | C[C@@]1(c2cccc(NC(=O)c3nccnc3Cl)c2)CCSC(N)=N1 [Compound 59]
≤ 1 µM | CCc1cnc(C(=O)Nc2cccc([C@]3(C)CCSC(N)=N3)c2)cn1 [Compound 63]
≤ 1 µM | C[C@@]1(c2cccc(NC(=O)C#Cc3ccccc3)c2)CCSC(N)=N1 [Compound 64]
≤ 1 µM | C[C@@]1(c2cccc(NC(=O)c3cnc(C(N)=O)cn3)c2)CCSC(N)=N1 [Compound 68]
≤ 1 µM | CSc1cnc(C(=O)Nc2cccc([C@]3(C)CCSC(N)=N3)c2)cn1 [Compound 69]
≤ 1 µM | COCCOc1cnc(C(=O)Nc2ccc(F)c([C@]3(C)CCSC(N)=N3)c2)cn1 [Compound 75]
≤ 1 µM | CSc1cnc(C(=O)Nc2ccc(F)c([C@]3(C)CCSC(N)=N3)c2)cn1 [Compound 77]
≤ 1 µM | C[C@@]1(c2cc(NC(=O)c3cnc(Cl)cn3)ccc2F)CCSC(N)=N1 [Compound 78]
≤ 1 µM | C[C@@]1(c2cc(NC(=O)c3cnc(N=[N+]=[N-])cn3)ccc2F)CCSC(N)=N1 [Compound 79]
≤ 1 µM | CCOCCOc1cnc(C(=O)Nc2cccc([C@]3(C)CCSC(N)=N3)c2)cn1 [Compound 81]
≤ 1 µM | C[C@@]1(c2cccc(NC(=O)c3cnc(OCC(F)(F)F)cn3)c2)CCSC(N)=N1 [Compound 82]
≤ 1 µM | C/C=C/COc1cnc(C(=O)Nc2cccc([C@]3(C)CCSC(N)=N3)c2)cn1 [Compound 83]
≤ 1 µM | C[C@@]1(c2cc(NC(=O)c3nccnc3Cl)ccc2F)CCSC(N)=N1 [Compound 84]
≤ 1 µM | COc1nccnc1C(=O)Nc1ccc(F)c([C@]2(C)CCSC(N)=N2)c1 [Compound 85]

IC50 | SMILES
≤ 1 µM | C[C@@]1(c2cccc(NC(=O)c3cnc(OCCC(F)(F)F)cn3)c2)CCSC(N)=N1 [Compound 89]
≤ 1 µM | COCCOCCOc1cnc(C(=O)Nc2cccc([C@]3(C)CCSC(N)=N3)c2)cn1 [Compound 90]
≤ 1 µM | CC#CCOc1cnc(C(=O)Nc2cccc([C@]3(C)CCSC(N)=N3)c2)cn1 [Compound 91]
≤ 1 µM | COCCOc1ccc(C(=O)Nc2cccc([C@]3(C)CCSC(N)=N3)c2)nc1 [Compound 95]
≤ 1 µM | COCCCOc1ccc(C(=O)Nc2cccc([C@]3(C)CCSC(N)=N3)c2)nc1 [Compound 96]
≤ 1 µM | C[C@@]1(c2cccc(NC(=O)c3ccc(OCCF)cn3)c2)CCSC(N)=N1 [Compound 97]
≤ 1 µM | CC(C)=CCOc1ccc(C(=O)Nc2cccc([C@]3(C)CCSC(N)=N3)c2)nc1 [Compound 98]
≤ 1 µM | CC#CCOc1cnc(C(=O)Nc2ccc(F)c([C@]3(C)CCSC(N)=N3)c2)cn1 [Compound 100]
≤ 1 µM | C[C@@]1(c2cccc(NC(=O)c3ccc(OCc4ccccc4)cn3)c2)CCSC(N)=N1 [Compound 102]
≤ 1 µM | C#CCOc1cnc(C(=O)Nc2cccc([C@]3(C)CCSC(N)=N3)c2)cn1 [Compound 103]
≤ 1 µM | CC#CCOc1cnc(C(=O)Nc2cccc(C3CCSC(N)=N3)c2)cn1 (stereo not shown) [Compound 107]
≤ 1 µM | CC/C=C\COc1cnc(C(=O)Nc2cccc([C@]3(C)CCSC(N)=N3)c2)cn1 [Compound 108]
≤ 1 µM | C[C@@]1(c2cccc(NC(=O)c3ccc(O)cn3)c2)CCSC(N)=N1 [Compound 110]
≤ 1 µM | C[C@@]1(c2cc(NC(=O)c3ccc(OCc4ccco4)cn3)ccc2F)CCSC(N)=N1 [Compound 112]
≤ 1 µM | CC(C)=NOc1cnc(C(=O)Nc2cccc([C@]3(C)CCSC(N)=N3)c2)cn1 [Compound 113]
≤ 1 µM | CCCCCc1cnc(C(=O)Nc2ccc(F)c([C@]3(C)CCSC(N)=N3)c2)cn1 [Compound 115]
≤ 1 µM | COCC#Cc1cnc(C(=O)Nc2ccc(F)c([C@]3(C)CCSC(N)=N3)c2)cn1 [Compound 116]
≤ 1 µM | COC/C=C\c1cnc(C(=O)Nc2ccc(F)c([C@]3(C)CCSC(N)=N3)c2)cn1 [Compound 117]
≤ 1 µM | COCCCc1cnc(C(=O)Nc2ccc(F)c([C@]3(C)CCSC(N)=N3)c2)cn1 [Compound 118]
≤ 1 µM | C[C@@]1(c2cc(NC(=O)c3ccc(O)cn3)ccc2F)CCSC(N)=N1 [Compound 119]
≤ 1 µM | CC#CCNc1cnc(C(=O)Nc2ccc(F)c([C@]3(C)CCSC(N)=N3)c2)cn1 [Compound 120]
≤ 1 µM | C[C@@]1(c2cc(NC(=O)c3cnc(OCC4CC4)cn3)ccc2F)CCSC(N)=N1 [Compound 121]
≤ 1 µM | CC#CCNc1cnc(C(=O)Nc2cccc([C@]3(C)CCSC(N)=N3)c2)cn1 [Compound 123]
≤ 1 µM | CCC/C=C/c1cnc(C(=O)Nc2ccc(F)c([C@]3(C)CCSC(N)=N3)c2)cn1 [Compound 124]
≤ 1 µM | CC(C)=NOc1cnc(C(=O)Nc2ccc(F)c([C@]3(C)CCSC(N)=N3)c2)cn1 [Compound 125]
≤ 1 µM | C[C@@]1(c2cc(NC(=O)c3cnc(OCC(F)F)cn3)ccc2F)CCSC(N)=N1 [Compound 131]
≤ 1 µM | C[C@@]1(c2cc(NC(=O)c3cnc(OCCF)cn3)ccc2F)CCSC(N)=N1 [Compound 132]

SMILES | IC50
COc1ccc(NC(=O)c2cnc(C)cn2)cc1[C@]1(C)CCSC(N)=N1 [Compound 32] | ≤ 1 µM
CSc1ccc(C(=O)Nc2cccc([C@]3(C)CCSC(N)=N3)c2)nc1 [Compound 33] | ≤ 1 µM
